What all share (assay): inhibition of tumour cell growth, NCI panel, 48 h
Assay [1] deals with A498 renal.
The subject of assay [2] is HCT-15 colon.
Assay [3] concerns TK-10 renal.
The subject of assay [4] is SR leukemia.
Assay [5] relates to MDA-MB-231 breast.
The subject of assay [6] is MCF7 breast.
Assay [7] deals with HOP-62 NSCLC.
Assay [8] has as its system EKVX NSCLC.
The test system of assay [9] is BT-549 breast.
Assay [10] concerns SF-295 CNS.
Assay [11] concerns CCRF-CEM leukemia.
Assay [12] has as its system ACHN renal.
Assay [13] concerns DU-145 prostate.
In assay [14] the test system is HL-60(TB) leukemia.
For assay [15], the system named is SK-OV-3 ovarian.
The subject of assay [16] is M14 melanoma.
The test system of assay [17] is SF-268 CNS.
Assay [18] deals with MALME-3M melanoma.
The subject of assay [19] is COLO 205 colon.

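Step 1: Grow cells in 96-well plates. Step 2: Expose to compound for 48 hours at 5 concentrations. Step 3: Interpolate endpoints linearly; if unreached, use highest concentration. At the TGI there is no net growth.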

`O=C1/C(=C\c2ccc([N+](=O)[O-])o2)SC2N=C(COc3ccc(Cl)cc3)NN12` (configuration not stated): the TGI is 44.3 µM in [1]; 4.77 µM in assay [2]; 31.4 µM in [3]; greater than 100 µM in assay [4]; 15.9 µM in [5]; 4.8 µM in assay [6]. Moreover, the TGI was found to be 41.8 µM in assay [7]; 22.3 µM in assay [8]; 21.8 µM in assay [9]; 34.1 µM in [10]; 5.97 µM in [11]; 3.67 µM in assay [12]. In addition, the TGI in assay [13] was 27.3 µM; in assay [14] it was 6.03 µM; in assay [15] it was 38.8 µM; in [16] it was 13.2 µM; in assay [17], 13.6 µM; in assay [18] it was 6.07 µM. In addition, in assay [19], the TGI is 13.3 µM.
For `C[C@]12CCC(=O)C=C1CC[C@@H]1C2CC[C@]2(C)c3nn(-c4ccc(F)cc4)nc3CC12` (some centres not stated), the TGI in assay [1], in assay [3], in assay [4], in assay [5], in [6] and in assay [7] was greater than 100 µM each time. The TGI in [8], in [9], in assay [10], in [11], in assay [12] and in assay [13] was greater than 100 µM in each case. Moreover, the TGI in assay [14], in assay [15], in [16], in assay [17], in assay [18] and in assay [19] was greater than 100 µM each time.
`Cc1cc(C)cc(C(=N)c2ccccc2Cc2cccc3ccccc23)c1`: the TGI is 87.3 µM in assay [1]; 32.2 µM in assay [2]; 94.6 µM in assay [3]; 41.3 µM in assay [4]; greater than 100 µM in assay [5]; 32.2 µM in assay [6]. For the same compound, the TGI in [7] is 32.2 µM; in [8], 46.4 µM; in assay [9], greater than 100 µM; in assay [10] it was 25.5 µM; in assay [11] it was 26.5 µM; in [12], 31.2 µM. The TGI in assay [13] turned out to be 29.7 µM; in assay [14] it was 33.5 µM; in assay [15] it was 41.5 µM; in assay [16], 40.1 µM; in [17], 34.9 µM; in assay [18], 33.4 µM. The TGI in assay [19] turned out to be 52.3 µM.
As to `CC(C)=CCS(=O)c1ccccc1NC1=CC(=O)CC(C)(C)C1` (configuration not stated), the TGI in assay [1] is greater than 100 µM; in [2], 28.7 µM; in assay [3], greater than 100 µM; in assay [4], greater than 100 µM; in assay [5], greater than 100 µM; in assay [6], greater than 100 µM. Also, the TGI in [7] was 0.855 µM; in [8] it was greater than 100 µM; in assay [9], greater than 100 µM; in [11], greater than 100 µM; in [12] it was greater than 100 µM; in assay [13], greater than 100 µM. Moreover, the TGI in assay [14], in assay [15], in assay [16], in assay [17], in assay [18] and in assay [19] was greater than 100 µM in each case.
Regarding `CC1=C(C(N)=O)C(c2ccncc2)C(C#N)=C2SCC(=O)N12` (configuration not stated), the TGI in assay [1], in assay [2], in [4], in assay [5], in assay [6] and in assay [7] was greater than 100 µM in each case. In addition, the TGI in assay [8], in assay [9], in assay [10], in [11], in assay [12] and in assay [13] was greater than 100 µM throughout. Besides, the TGI in assay [14], in [15], in assay [16], in assay [17], in [18] and in assay [19] was greater than 100 µM each time.
For `Cc1cccc(/C=N/NC(=S)NCCc2ccccn2)n1`, the TGI in assay [1] is 87.5 µM; in assay [2], greater than 100 µM; in assay [3], greater than 100 µM; in [4], greater than 100 µM; in assay [5] it was greater than 100 µM; in assay [6] it was greater than 100 µM. Also, the TGI in assay [7] was greater than 75.1 µM; in [8] it was greater than 100 µM; in assay [9] it was greater than 100 µM; in assay [10] it was greater than 100 µM; in assay [11] it was greater than 72.9 µM; in assay [12] it was greater than 74.5 µM. Also, the TGI in assay [13] was greater than 86.3 µM; in assay [14], 41.7 µM; in [15], 43.5 µM; in assay [16] it was 33.6 µM; in [17] it was greater than 100 µM; in [18] it was greater than 100 µM. The TGI in assay [19] was greater than 100 µM.
As for `COC1=C(Br)[C@H](O)[C@@]2(C=C1Br)CC(C(=O)NCCCCCN=C(N)N)=NO2`, the TGI in assay [1], in [2], in assay [3], in assay [4], in assay [5] and in [6] was greater than 10 µM each time. Besides, the TGI in assay [7], in assay [9], in [10], in assay [11], in assay [12] and in [13] was greater than 10 µM in each case. Also, the TGI in [14], in assay [15], in [16], in [17], in [18] and in assay [19] was greater than 10 µM in each case.
For the compound `CC(=O)OC1CC2c3cccc4c3C(CC2N(C)C1=O)CN4C(=O)c1ccccc1` (configuration not stated), the TGI in [1] is 74.6 µM; in [2] it was 46.2 µM; in assay [3], greater than 100 µM; in assay [4] it was 94.8 µM; in assay [5], 52.4 µM; in assay [6], 62.9 µM. The TGI in assay [7] is 77.4 µM; in assay [8] it was 83.1 µM; in [9] it was 33.1 µM; in [10] it was 69.5 µM; in assay [11] it was greater than 100 µM; in assay [12], 55.5 µM. The TGI in [13] is 42.1 µM; in assay [14] it was 44 µM; in assay [15], 80.4 µM; in [16], 55.8 µM; in assay [17] it was greater than 100 µM; in assay [19] it was 56.1 µM.
`Clc1ccc(Cl)c(Nc2ccnc(SCc3ccccc3)n2)c1`: the TGI in assay [1], in [2], in [3], in assay [4], in assay [5] and in assay [6] was greater than 100 µM each time. For the same compound, the TGI in assay [7], in [8], in [9], in assay [10], in assay [11] and in assay [12] was greater than 100 µM in each case. The TGI in [13], in [15], in assay [16], in assay [17], in assay [18] and in [19] was greater than 100 µM each time.
`CO[C@H]1[C@@H](O)[C@@H](C)O[C@@H](O[C@H]2CC[C@@]3(C)[C@H](CC[C@@H]4[C@@H]3CC[C@]3(C)[C@@H](C5=CC(=O)OC5)[C@@H](OC(C)=O)C[C@]43O)C2)[C@@H]1O`: the TGI in assay [1] was 1.27 µM; in assay [2] it was 0.292 µM; in [3], 0.052 µM; in assay [4], greater than 50 µM; in assay [5], 0.972 µM; in assay [6], greater than 50 µM. Moreover, the TGI is 0.0878 µM in assay [7]; 0.0568 µM in [8]; 0.161 µM in assay [9]; 0.55 µM in [10]; 0.0575 µM in [12]; 0.0589 µM in [13]. In addition, the TGI in assay [14] worked out at 0.332 µM; in assay [15], 0.188 µM; in assay [16], 0.189 µM; in [17], 0.0855 µM; in assay [18], 0.0445 µM; in [19] it was 0.447 µM.
Regarding `CCN1c2nc3ccccc3nc2N(CC)c2nc3ccccc3nc21`, the TGI in [1], in assay [2], in [3], in assay [4], in assay [5] and in [6] was greater than 100 µM each time. The TGI in assay [8], in [9], in [10], in assay [11], in assay [12] and in assay [13] was greater than 100 µM in each case. Besides, the TGI in assay [14], in assay [15], in assay [16], in [17], in assay [18] and in assay [19] was greater than 100 µM in each case.
Regarding `CC(=O)Oc1ccccc1-c1cc2ccccc2oc1=O`, the TGI in [1], in assay [2], in [4], in assay [5], in assay [6] and in assay [7] was greater than 100 µM in each case. The TGI in assay [8], in [9], in [10], in assay [11], in assay [12] and in [13] was greater than 100 µM each time. In addition, the TGI in assay [14], in assay [16], in assay [17], in assay [18] and in [19] was greater than 100 µM each time.
Turning to `COc1ccc2c(c1)CCc1c-2[nH]c2ccc(OC)cc12`, the TGI in assay [1], in assay [2], in assay [3], in assay [4], in assay [5] and in assay [6] was greater than 100 µM in each case. Moreover, the TGI is greater than 100 µM in [7]; greater than 100 µM in [8]; greater than 100 µM in assay [9]; greater than 100 µM in [10]; 97.7 µM in assay [11]; greater than 100 µM in [12]. In addition, the TGI in assay [13], in assay [15], in assay [16], in assay [17], in [18] and in assay [19] was greater than 100 µM each time.
On to `CCN(CC)CCn1nc(N)c2nc3cc(Cl)ccc3nc21`, for which the TGI in assay [1], in [2], in assay [3], in assay [4], in [5] and in assay [6] was greater than 100 µM in each case. Besides, the TGI in assay [7], in assay [8], in [9], in assay [10], in [12] and in assay [13] was greater than 100 µM each time. The TGI in assay [14], in assay [15], in assay [16], in assay [17], in assay [18] and in assay [19] was greater than 100 µM throughout.
Take `C#CCn1ncc2c(SCc3ccccc3)ncnc21`: the TGI in assay [1], in [2], in [3], in [4], in assay [5] and in assay [6] was greater than 100 µM in each case. Moreover, the TGI in [7], in assay [8], in assay [9], in [10], in assay [11] and in [12] was greater than 100 µM each time. The TGI in assay [13], in assay [15], in assay [16], in assay [17], in assay [18] and in assay [19] was greater than 100 µM each time.

For the origin of these results see PubChem BioAssay (NCI).
